Results taken from publication PMC10150354, “Linearization of the Brevicidine and Laterocidine Lipopeptides Yields Analogues That Retain Full Antibacterial Activity” (Journal of Medicinal Chemistry, 2023).
Converted amounts (≈) assume the structure as drawn. Where a SMILES comes first, the peptide text is derived from it. [ ]: non-standard residue; d: D form. The star is where a group is joined. ξ: configuration not given here. Octanoyl(7-Me) = CC(C)CCCCCC(=O)*; Hexanoyl(4ξ-Me) = CCC(C)CCC(=O)*; dOrn = NCCC[C@@H](N)C(=O)O; Orn = NCCC[C@H](N)C(=O)O; Dap = NC[C@H](N)C(=O)O

Experiments:
E. coli (MCR-1) = assay type: cell-based, Escherichia coli; details: microbroth dilution per CLSI, MHB, 18 h at 37 °C, visual inspection, three technical replicates, E. coli 25922 carrying mcr-1
Experimental: (§1) Linear laterocidine (LL-OH, 4) and linear brevicidine (LB-OH, 5) were first synthesized by Fmoc SPPS, starting from 2-chlorotrityl (2-CT) chloride resin. The antibacterial activity of these peptides was then compared to brevicidine (1) and laterocidine (2) using minimum inhibitory concentration (MIC)/microbroth dilution assays (Table 1). The MICs of all peptides were determined against a panel of Gram-negative and Gram-positive ESKAPE pathogens. Additionally, a strain of E. coli carrying the mcr-1 gene was included in the panel. The mcr-1 gene is a transferrable plasmid that confers resistance against colistin, a last-resort antibiotic for Gram-negative infections, by reducing the overall negative charge of lipopolysaccharide (LPS) through modification of lipid A with phosphoethanolamine. The propensity for cationic antibiotics to bind to the cell membrane is therefore reduced. This gene has been observed in more than 27 bacterial species over six continents.[26] The spread of the mcr-1 gene could render colistin ineffectual; therefore, novel antibacterials are urgently required to overcome this form of resistance.
(§2) All minimum inhibitory concentrations (MICs) were determined according to Clinical and Laboratory Standards Institute (CLSI) guidelines. Blood agar plates were inoculated with glycerol stocks of E. coli ATCC 25922, K. pneumoniae ATCC 13883, A. baumannii ATCC 17961, P. aeruginosa PAO1, and S. aureus USA300. The inoculated agar plates were then incubated for 16 h at 37 °C. Individually grown colonies were subsequently used to inoculate 5 mL aliquots of TSB that were then incubated at 37 °C with shaking at 220 rpm. E. coli 25922 MCR-1 glycerol stock was used to inoculate 5 mL of TSB supplemented with kanamycin that was then incubated for 16 h at 37 °C with shaking at 220 rpm. The next day the culture was diluted 100-fold in TSB supplemented with kanamycin and incubated at 37 °C with shaking at 220 rpm. In parallel, the lipopeptide antibiotics DMSO stocks to be assessed were serially diluted with MHB in polypropylene 96-well plates (50 μL in each well). Colistin sulfate stocks were dissolved in water before being diluted with MHB. Aliquots of the inoculated TSB were incubated until an OD600 of around 0.5 was reached. The bacterial suspensions were then diluted with MHB (2 × 10^5 CFU/mL) and added to the microplates containing the test compounds (50 μL to each well). The well plates were sealed with an adhesive membrane and after 18 h of incubation at 37 °C with shaking at 600 rpm, the wells were visually inspected for bacterial growth. MIC values reported are based on three technical replicates and defined as the lowest concentration of the compound that prevented visible growth of bacteria.

E. coli ATCC 25922 = assay type: cell-based, Escherichia coli; details: for Antibacterial activity (MIC) E. coli ATCC 25922: microbroth dilution per CLSI, MHB, 18 h at 37 °C, visual inspection, three technical replicates; for MIC (µg/mL) against E. coli (ATCC 25922): (Supplement 2)
Experimental: as §1, §2

K. pneumoniae ATCC 13883 = assay type: cell-based, Klebsiella pneumoniae; details: microbroth dilution per CLSI, MHB, 18 h at 37 °C, visual inspection, three technical replicates
Experimental: as §1, §2

A. baumannii ATCC 17961 = assay type: cell-based, Acinetobacter baumannii; details: microbroth dilution per CLSI, MHB, 18 h at 37 °C, visual inspection, three technical replicates
Experimental: as §1, §2

P. aeruginosa PAO1 = assay type: cell-based, Pseudomonas aeruginosa; details: microbroth dilution per CLSI, MHB, 18 h at 37 °C, visual inspection, three technical replicates
Experimental: as §1, §2

S. aureus USA300 = assay type: cell-based, Staphylococcus aureus; details: microbroth dilution per CLSI, MHB, 18 h at 37 °C, visual inspection, three technical replicates
Experimental: as §1, §2

| SMILES | Antibacterial activity (MIC) E. coli (MCR-1) (E. coli (MCR-1)) [µg/mL] | Antibacterial activity (MIC) E. coli ATCC 25922 (E. coli ATCC 25922) [µg/mL] | Antibacterial activity (MIC) K. pneumoniae ATCC 13883 (K. pneumoniae ATCC 13883) [µg/mL] | Antibacterial activity (MIC) A. baumannii ATCC 17961 (A. baumannii ATCC 17961) [µg/mL] | Antibacterial activity (MIC) P. aeruginosa PAO1 (P. aeruginosa PAO1) [µg/mL] | Antibacterial activity (MIC) S. aureus USA300 (S. aureus USA300) [µg/mL] | MIC (µg/mL) against E. coli (ATCC 25922) (E. coli ATCC 25922) [µg/mL] |
| --- | --- | --- | --- | --- | --- | --- | --- |
| CC[C@H](C)[C@H](NC(=O)[C@@H](NC(=O)[C@H](Cc1c[nH]c2ccccc12)NC(=O)[C@@H](CCCN)NC(=O)CNC(=O)[C@H](CCCN)NC(=O)[C@@H](CCCN)NC(=O)[C@@H](Cc1c[nH]c2ccccc12)NC(=O)[C@@H](Cc1ccc(O)cc1)NC(=O)[C@@H](C)NC(=O)CCCCCC(C)C)[C@@H](C)O)C(=O)N[C@@H](CC(N)=O)C(=O)NCC(=O)NCC(N)=O [LL(D-Ala1)-NH2 (29)] ({Octanoyl(7-Me)}-[dA][dY][dW][dOrn][Orn]G[dOrn]WTINGG-NH2) | 8 | 8 | >32 | 32 | 8 | >32 | – |
| CC[C@H](C)[C@H](NC(=O)[C@@H](NC(=O)[C@H](Cc1c[nH]c2ccccc12)NC(=O)[C@@H](CCCN)NC(=O)CNC(=O)[C@H](CCCN)NC(=O)[C@@H](CCCN)NC(=O)[C@@H](Cc1c[nH]c2ccccc12)NC(=O)[C@@H](Cc1ccc(O)cc1)NC(=O)[C@@H](CO)NC(=O)CCCCCC(C)C)[C@@H](C)O)C(=O)N[C@@H](CC(N)=O)C(=O)NCC(=O)N[C@@H](C)C(N)=O [LL(Ala13)-NH2 (41)] ({Octanoyl(7-Me)}-[dS][dY][dW][dOrn][Orn]G[dOrn]WTINGA-NH2) | 8 | 4 to 8 | 8 | 8 | 4 | >32 | 4 to 8 |
| CC[C@H](C)[C@H](NC(=O)[C@@H](NC(=O)[C@H](Cc1c[nH]c2ccccc12)NC(=O)[C@@H](CCCN)NC(=O)CNC(=O)[C@H](CCCN)NC(=O)[C@@H](CCCN)NC(=O)[C@@H](Cc1c[nH]c2ccccc12)NC(=O)[C@@H](Cc1ccc(O)cc1)NC(=O)[C@@H](CO)NC(=O)CCCCCC(C)C)[C@@H](C)O)C(=O)N[C@@H](CC(N)=O)C(=O)NCC(=O)NCC(=O)O [LL-OH (4)] ({Octanoyl(7-Me)}-[dS][dY][dW][dOrn][Orn]G[dOrn]WTINGG-OH) | 16 | 8 | 8 to 16 | 16 | 8 | >32 | – |
| CCC(C)CCC(=O)N[C@H](CC(N)=O)C(=O)N[C@H](C)C(=O)N[C@H](Cc1c[nH]c2ccccc12)C(=O)N[C@H](CCCN)C(=O)N[C@@H](CCCN)C(=O)NCC(=O)N[C@H](CCCN)C(=O)N[C@@H](Cc1c[nH]c2ccccc12)C(=O)N[C@H](C(=O)N[C@H](C(=O)NCC(=O)N[C@@H](CO)C(N)=O)[C@@H](C)CC)[C@@H](C)O (stereo partly drawn) [LB(D-Ala2)-NH2 (18)] ({Hexanoyl(4ξ-Me)}-[dN][dA][dW][dOrn][Orn]G[dOrn]WTIGS-NH2) | – | – | – | – | – | – | >32 |
| CC[C@H](C)[C@H](NC(=O)[C@@H](NC(=O)[C@H](Cc1c[nH]c2ccccc12)NC(=O)[C@@H](CCCN)NC(=O)[C@H](C)NC(=O)[C@H](CCCN)NC(=O)[C@@H](CCCN)NC(=O)[C@@H](Cc1c[nH]c2ccccc12)NC(=O)[C@@H](Cc1ccc(O)cc1)NC(=O)[C@@H](CO)NC(=O)CCCCCC(C)C)[C@@H](C)O)C(=O)N[C@@H](CC(N)=O)C(=O)NCC(=O)NCC(N)=O [LL(Ala6)-NH2 (34)] ({Octanoyl(7-Me)}-[dS][dY][dW][dOrn][Orn]A[dOrn]WTINGG-NH2) | 8 | 4 to 8 | 8 | 16 | 16 | >32 | 4 to 8 |
| CC[C@H](C)[C@H](NC(=O)[C@H](CN)NC(=O)[C@H](Cc1c[nH]c2ccccc12)NC(=O)[C@@H](CCCN)NC(=O)CNC(=O)[C@H](CCCN)NC(=O)[C@@H](CCCN)NC(=O)[C@@H](Cc1c[nH]c2ccccc12)NC(=O)[C@@H](Cc1ccc(O)cc1)NC(=O)[C@@H](CO)NC(=O)CCCCCC(C)C)C(=O)N[C@@H](CC(N)=O)C(=O)NCC(=O)NCC(N)=O [LL(Dap9)-NH2 (52)] ({Octanoyl(7-Me)}-[dS][dY][dW][dOrn][Orn]G[dOrn]W[Dap]INGG-NH2) | 8 | 8 | 32 | 16 | – | >32 | 8 (≈ 4.98 µM) |
| CCC(C)CCC(=O)N[C@H](CC(N)=O)C(=O)N[C@H](Cc1ccc(O)cc1)C(=O)N[C@H](Cc1c[nH]c2ccccc12)C(=O)N[C@H](CCCN)C(=O)N[C@@H](CCCN)C(=O)NCC(=O)N[C@H](C)C(=O)N[C@@H](Cc1c[nH]c2ccccc12)C(=O)N[C@H](C(=O)N[C@H](C(=O)NCC(=O)N[C@@H](CO)C(N)=O)[C@@H](C)CC)[C@@H](C)O (stereo partly drawn) [LB(D-Ala7)-NH2 (23)] ({Hexanoyl(4ξ-Me)}-[dN][dY][dW][dOrn][Orn]G[dA]WTIGS-NH2) | – | – | – | – | – | – | >32 |
| CCC(C)CCC(=O)N[C@H](CC(N)=O)C(=O)N[C@H](Cc1ccc(O)cc1)C(=O)N[C@H](Cc1c[nH]c2ccccc12)C(=O)N[C@H](CCCN)C(=O)N[C@@H](CCCN)C(=O)NCC(=O)N[C@H](CCCN)C(=O)N[C@@H](Cc1c[nH]c2ccccc12)C(=O)N[C@H](C(=O)N[C@@H](C)C(=O)NCC(=O)N[C@@H](CO)C(N)=O)[C@@H](C)O (some centres unmarked) [LB(Ala10)-NH2 (26)] ({Hexanoyl(4ξ-Me)}-[dN][dY][dW][dOrn][Orn]G[dOrn]WTAGS-NH2) | – | – | – | – | – | – | >32 |
| CCC(C)CCC(=O)N[C@H](CC(N)=O)C(=O)N[C@H](Cc1ccc(O)cc1)C(=O)N[C@H](Cc1c[nH]c2ccccc12)C(=O)N[C@H](CCCN)C(=O)N[C@@H](C)C(=O)NCC(=O)N[C@H](CCCN)C(=O)N[C@@H](Cc1c[nH]c2ccccc12)C(=O)N[C@H](C(=O)N[C@H](C(=O)NCC(=O)N[C@@H](CO)C(N)=O)[C@@H](C)CC)[C@@H](C)O (some centres unmarked) [LB(Ala5)-NH2 (21)] ({Hexanoyl(4ξ-Me)}-[dN][dY][dW][dOrn]AG[dOrn]WTIGS-NH2) | – | – | – | – | – | – | >32 |
| CCC(C)CCC(=O)N[C@H](CC(N)=O)C(=O)N[C@H](Cc1ccc(O)cc1)C(=O)N[C@H](C)C(=O)N[C@H](CCCN)C(=O)N[C@@H](CCCN)C(=O)NCC(=O)N[C@H](CCCN)C(=O)N[C@@H](Cc1c[nH]c2ccccc12)C(=O)N[C@H](C(=O)N[C@H](C(=O)NCC(=O)N[C@@H](CO)C(N)=O)[C@@H](C)CC)[C@@H](C)O (stereo partly drawn) [LB(D-Ala3)-NH2 (19)] ({Hexanoyl(4ξ-Me)}-[dN][dY][dA][dOrn][Orn]G[dOrn]WTIGS-NH2) | – | – | – | – | – | – | >32 |
| CCC(C)CCC(=O)N[C@H](CC(N)=O)C(=O)N[C@H](Cc1ccc(O)cc1)C(=O)N[C@H](Cc1c[nH]c2ccccc12)C(=O)N[C@H](CCCN)C(=O)N[C@@H](CCCN)C(=O)NCC(=O)N[C@H](CCCN)C(=O)N[C@@H](C)C(=O)N[C@H](C(=O)N[C@H](C(=O)NCC(=O)N[C@@H](CO)C(N)=O)[C@@H](C)CC)[C@@H](C)O (some centres unmarked) [LB(Ala8)-NH2 (24)] ({Hexanoyl(4ξ-Me)}-[dN][dY][dW][dOrn][Orn]G[dOrn]ATIGS-NH2) | – | – | – | – | – | – | >32 |
